This passage reports IC50 results from ChEMBL document CHEMBL1134875, “Binding modes of two novel dinucleotide inhibitors of HIV-1 integrase” (Bioorg Med Chem Lett, 2002).

The target in assay [1] is T1, Human immunodeficiency virus type 1 integrase (Human immunodeficiency virus 1, UniProt Q7ZJM1). The assay can be described thus: Compound was tested for the inhibition HIV integrase strand transfer activity.
Assay [2] addresses T1, Human immunodeficiency virus type 1 integrase. The assay can be described thus: Compound was tested for the inhibition HIV integrase 3'-processing activity.

Broadly, the IC50 is the concentration at which inhibition is half-maximal. Low values mean greater potency, high ones weaker potency.

T1 sequence (Q7ZJM1 whole entry): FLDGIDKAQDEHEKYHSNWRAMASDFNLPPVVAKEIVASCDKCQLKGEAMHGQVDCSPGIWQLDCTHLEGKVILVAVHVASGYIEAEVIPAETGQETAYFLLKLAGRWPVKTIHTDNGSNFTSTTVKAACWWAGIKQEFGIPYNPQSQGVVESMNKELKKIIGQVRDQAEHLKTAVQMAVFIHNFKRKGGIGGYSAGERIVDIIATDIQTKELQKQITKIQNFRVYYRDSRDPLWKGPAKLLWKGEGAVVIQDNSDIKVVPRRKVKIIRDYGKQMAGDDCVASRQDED

In the case of `Nc1ccn([C@H]2C[C@@H](O)[C@@H](COP(=O)(O)O[C@@H]3[C@H](COP(=O)(O)O)OC[C@@H]3n3cnc4c(N)ncnc43)O2)c(=O)n1`, the IC50 in assay [1] was 25 µM; in assay [2], 19 µM.
